From patent US4940711A, “Antihypertensive N-piperazinylalkanoylanilides” (Recordati, S.A., Chemical and Pharmaceutical Company, priority 1983, dated 1990)
Counter-ions that a name gives are not always drawn.

What was measured:
[1] = LD50 in the mouse per os (acute toxicity); details: in vivo, po, tested as hydrochloride salt except AC 2, 4 and 9 (free bases)
Protocol: The LD50 of the compounds according to the invention was determined in the mouse per os following the method described by C. S. Weil (Biometrics,8, 249, 1952).
In the following Table I, the numbers under AC (active compound) indicate the compounds described in the corresponding Examples (thus "1" indicates the compound prepared in Example 1).
(§1) ^a all compounds were tested as the hydrochloride salt, except for AC
(§2) 2, 4 and 9 (tested as free bases)

[2] = system: spontaneously hypertensive rats; assay: Antihypertensive activity (systolic blood pressure, indirect tail-cuff method) in conscious spontaneously hypertensive rats; type: in vivo; details: Rattus norvegicus, po; os, conscious SHR, 1, 3, 5 and 7 hours after administration; from linear regression of dose-response curve; hydrochloride salt except AC 2, 4 and 9 (free bases); read-out: ED25 (drug dose producing a 25% decrease in systolic blood pressure)
Protocol: Antihypertensive activity was evaluated in male spontaneously hypertensive rats (SHR, Wister-Kyoto strain, 15-25 weeks old). The determination of blood pressure was performed by the indirect method (M. Gerald et al, Arzneim.-Forsch., 18, 1825, 1968). The animals were prewarmed in a heating chamber at a temperature from 35° to 37° C. for a period of 15 minutes before administering the compounds. The compounds tested by the oral route were dissolved or suspended in a 0.5% methylcellulose solution. Controls were given only the vehicle. Systolic blood pressure and heart rate were measured 1, 3, 5 and 7 hours after drug administration by means of a tail-cuff and the pulse pick-up method using a recorder.
In the Table I, the antihypertensive activity was expressed as ED25, which is the drug dose producing a 25% decrease in systolic blood pressure in conscious spontaneously hypertensive rats. The ED25 was calculated from the linear regression of the dose-response curve.
as §1, §2

## COc1ccccc1N1CCN(CCC(=O)Nc2ccc(S(C)(=O)=O)cc2)CC1 [Example 2, 4-Methylsulphonyl-β-[4-(2-methoxyphenyl)-1-piperazinyl]-propionylanilide]
[1]
  LD50: > 3000 mg/kg
[2]
  ED25: 7.5 mg/kg

## COc1ccccc1N1CCN(CCC(=O)Nc2ccc(S(N)(=O)=O)cc2)CC1 [Example 4, 4-Sulphamoyl-β-[4-(2-methoxyphenyl)-1-piperazinyl]-propionylanilide]
[1]
  LD50: > 3000 mg/kg
[2]
  ED25: 8.1 mg/kg

## COc1ccccc1N1CCN(CCC(=O)Nc2ccc(C(N)=O)cc2)CC1 [Example 5, 4-Carbamoyl-β-[4-(2-methoxyphenyl)-1-piperazinyl]-propionylanilide]
[1]
  LD50: > 3000 mg/kg
[2]
  ED25: 54.5 mg/kg

## COc1ccccc1N1CCN(CCC(=O)Nc2ccc(C(C)=O)cc2)CC1 [Example 6a, 4-acetyl-β-[4-(2-methoxyphenyl)-1-piperazinyl]-propionylanilide]
[1]
  LD50: 2200 mg/kg
[2]
  ED25: 58.5 mg/kg

## COc1ccccc1N1CCN(CCC(=O)Nc2cccc(C(F)(F)F)c2)CC1 [Example 6b, 3-trifluoromethyl-β-[4-(2-methoxyphenyl)-1-piperazinyl]-propionylanilide hydrochloride]
[1]
  LD50: 1600 mg/kg
[2]
  ED25: 48.8 mg/kg

## COc1ccc(NC(=O)CCN2CCN(c3ccccc3OC)CC2)cc1 [Example 6c, 4-methoxy-β-[4-(2-methoxyphenyl)-1-piperazinyl]-propionylanilide]
[1]
  LD50: > 3000 mg/kg
[2]
  ED25: 10 mg/kg

## COc1cccc(NC(=O)CCN2CCN(c3ccccc3OC)CC2)c1 [Example 6d, 3-methoxy-β-[4-(2-methoxyphenyl)-1-(piperazinyl]-propionylanilide hydrochloride]
[1]
  LD50: 649 mg/kg
[2]
  ED25: 69 mg/kg

## COc1ccccc1N1CCN(CCC(=O)Nc2ccc(C#N)cc2)CC1 [Example 6f, 4-cyano-β-[4-(2-methoxyphenyl)-1-piperazinyl]-propionylanilide]
[1]
  LD50: 320 mg/kg
[2]
  ED25: 17.2 mg/kg

## COc1ccccc1N1CCN(CCC(=O)Nc2ccc([N+](=O)[O-])cc2)CC1 [Example 7, 4-Nitro-β-[4-(2-methoxyphenyl)-1-piperazinyl]-propionylanilide]
[1]
  LD50: 2100 mg/kg
[2]
  ED25: 50.5 mg/kg

## COc1ccccc1N1CCN(CC(=O)Nc2ccc(N)cc2)CC1 [Example 8a]
[1]
  LD50: 1000 mg/kg
[2]
  ED25: 70.2 mg/kg

## COc1ccccc1N1CCN(CCC(=O)Nc2ccc(C(C)O)cc2)CC1 (stereo not drawn) [Example 9, 4-(1Hydroxyethyl)-β-[4-(2-methoxyphenyl)-1-piperazinyl]-propionylanilide]
[1]
  LD50: 537 mg/kg
[2]
  ED25: 69 mg/kg

## COc1ccccc1N1CCN(C(C)CC(=O)Nc2ccc(S(N)(=O)=O)cc2)CC1 (stereo not drawn) [Example 10, 4-Sulphamoyl-β-[4-(2-methoxyphenyl)-1-piperazinyl]-butyrylanilide]
[1]
  LD50: > 3000 mg/kg
[2]
  ED25: 8.7 mg/kg

## COc1ccccc1N1CCN(CCC(=O)Nc2ccc(S(=O)(=O)NC(C)=O)cc2)CC1 [Example 11, 4-Acetylsulphamoyl-β-[4-(2-methoxyphenyl)-1-piperazinyl]-propionylanilide]
[1]
  LD50: > 3000 mg/kg
[2]
  ED25: 100 mg/kg

## COc1ccccc1N1CCN(CCC(=O)Nc2ccc(NC(C)=O)cc2)CC1 [Example 12, 4-Acetylamino-β-[4-(2-methoxyphenyl)-1-piperazinyl]-propionylanilide]
[1]
  LD50: > 3000 mg/kg
[2]
  ED25: 100 mg/kg

## COc1ccccc1N1CCN(CCC(=O)Nc2cccc(S(N)(=O)=O)c2)CC1 [Example 13, 3-Sulphamoyl-β-[4-(2-methoxyphenyl)-1-piperazinyl]-propionylanilide hydrate]
[1]
  LD50: > 3000 mg/kg
[2]
  ED25: 100 mg/kg

## COc1ccccc1N1CCN(CCC(=O)Nc2cccc(Cl)c2)CC1 [Example 14, 3-Chloro-β-[4-(2-methoxyphenyl)-1-piperazinyl]-propinylanilide]
[1]
  LD50: > 3000 mg/kg
[2]
  ED25: 100 mg/kg

## COc1ccccc1N1CCN(CCC(=O)Nc2ccc3c(c2)OCO3)CC1 [Example 19, 3,4-Methylenedioxy-β-[4-(2-methoxyphenyl)-1-piperazinyl]-propionylanilide]
[1]
  LD50: 340 mg/kg
[2]
  ED25: 100 mg/kg

## COc1ccccc1N1CCN(CCC(=O)Nc2cc(OC)c(OC)c(OC)c2)CC1 [Example 20, 3,4,5-Trimethoxy-β-[4-(2-methoxyphenyl)-1-piperazinyl]-propionylanilide hydrochloride]
[1]
  LD50: 730 mg/kg
[2]
  ED25: 60 mg/kg

## COc1ccccc1N1CCN(CCC(=O)Nc2ccc(S(=O)(=O)N(C)C)cc2)CC1 [Example 21, 4-(Dimethylsulphamoyl)-β-[4-(2-methoxyphenyl)-1-piperazinyl]-propionylanilide]
[1]
  LD50: > 3000 mg/kg
[2]
  ED25: 60 mg/kg
